Measured values published in article PMC4819196, “A novel fibroblast growth factor receptor 1 inhibitor protects against cartilage degradation in a murine model of osteoarthritis” (Scientific Reports, 2016).

Target: fibroblast growth factor receptor 1 (FGFR1) (Homo sapiens, UniProt P11362)
Assay: cell-free kinase inhibition, caliper mobility shift assay, ATP at Km ([…])
Assay type: biochemical

Chain of fibroblast growth factor receptor 1 (FGFR1) (P11362 22-822): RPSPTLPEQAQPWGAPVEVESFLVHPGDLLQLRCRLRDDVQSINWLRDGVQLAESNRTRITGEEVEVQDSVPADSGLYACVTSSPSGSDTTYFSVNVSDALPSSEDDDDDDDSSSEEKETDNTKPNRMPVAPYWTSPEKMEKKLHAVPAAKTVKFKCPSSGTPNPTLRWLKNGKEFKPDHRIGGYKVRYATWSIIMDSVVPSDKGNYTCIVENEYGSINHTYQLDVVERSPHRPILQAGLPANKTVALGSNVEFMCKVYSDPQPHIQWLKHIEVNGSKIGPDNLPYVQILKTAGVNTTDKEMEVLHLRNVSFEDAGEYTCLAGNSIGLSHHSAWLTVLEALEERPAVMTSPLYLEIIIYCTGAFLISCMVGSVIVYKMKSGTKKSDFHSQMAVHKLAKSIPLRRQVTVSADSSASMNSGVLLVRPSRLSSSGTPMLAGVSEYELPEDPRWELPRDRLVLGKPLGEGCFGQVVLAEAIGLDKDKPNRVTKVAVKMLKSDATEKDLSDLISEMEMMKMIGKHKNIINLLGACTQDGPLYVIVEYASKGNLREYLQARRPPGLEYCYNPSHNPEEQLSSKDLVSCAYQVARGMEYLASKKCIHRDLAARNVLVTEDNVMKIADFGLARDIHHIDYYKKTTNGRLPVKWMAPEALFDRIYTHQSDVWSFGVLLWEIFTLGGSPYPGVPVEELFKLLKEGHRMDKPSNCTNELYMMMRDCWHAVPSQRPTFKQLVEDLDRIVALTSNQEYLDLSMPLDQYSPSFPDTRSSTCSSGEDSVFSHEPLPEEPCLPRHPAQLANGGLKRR

Structure (SMILES): CCOc1ccc(/C=C2\CC[C@@]3(C2=O)[C@@H](c2ccc(OCC)cc2)CN(C)[C@]32C(=O)c3cccc4cccc2c34)cc1 [G141]
- IC50: 2700 ± 540 nM
